Here are results for two compounds from US20190000789A1, “COMPOSITION AND METHOD FOR TREATING INFECTIONS CAUSED BY VANCOMYCIN-RESISTANT INFECTIOUS AGENTS IN A SUBJECT” (priority 2015, published 2019).

Common to all, as to type: cell-based, Streptomyces coelicolor
The subject of test [1] is S. coelicolor M145 ΔvanX (LAG3). Kind of test: MIC of vancomycin on MM agar plates with added D-Ala. Particulars: M145 ΔvanX, 1000-fold lower D-Ala concentration than for M145. The source says: VanX effectively eradicates the D-Ala-D-Ala dipeptide, thereby counteracting the accumulation of wild-type precursors and supporting vancomycin resistance (Lessard and Walsh, 1999; Tan et al., 2002). Therefore, a vanX null mutant was created using a similar strategy as for ddl, replacing the coding region of vanX by the apramycin resistance cassette aacC4. The mutant was created in both the parental strain S. coelicolor M145 and in its ddl suppressor mutant LAG2, generating LAG3 (M145 ΔvanX) and LAG4 (M145 Δddl ΔvanX vanS::IS466A), respectively.
LAG4 produced 20% wt precursors prior to the addition of D-Ala.
(§1) Escherichia coli strains JM109 (Sambrook et al., 1989) and ET12567 (Kieser et al., 2000) were used for routine cloning procedures and for extracting non-methylated DNA, respectively. Cells of E. coli were grown in Luria-Berani broth (LB) at 37° C. Streptomyces coelicolor A3(2) M145 was the parent of all mutants described in this work. All media and routine Streptomyces techniques were carried out as described (Kieser et al., 2000). SFM (soy flour mannitol) agar plates were used for propagating S. coelicolor strains and to prepare spore suspensions. For liquid-grown cultures, S. coelicolor mycelia were grown in normal minimal media with phosphate (NMMP) supplemented with 1% (w/v) mannitol as the sole carbon source. The MIC of vancomycin against S. coelicolor M145 and its mutant derivatives were determined by growth on minimal media (MM) agar plates supplemented with 1% mannitol as the sole carbon source, and 0, 2, 4, 8, 16, 32, 64, 128, 256 or 512 μg/ml vancomycin, in combination with 0, 1, 5, 10 or 50 mM of D-Ala or L-Ala. The vanX deletion mutants have been tested with 1, 5, 10, 50 and 100 μM D-Ala and L-Ala.

In test [2] the test system is S. coelicolor LAG4 (LAG2 ΔvanX). Description: LC-MS analysis of peptidoglycan precursors, time course after D-Ala addition. On the procedure: (§2) To investigate what the effect would be of the addition of excess of D-Ala on the accumulation of wild-type precursors, a time-course experiment was performed to follow the effect of D-Ala addition on the ratio between wild-type and resistant precursors. Therefore, 300 ml liquid-grown NMMP cultures were supplemented with either D-Ala or L-Ala (control) at 50 mM end concentration, and 10 ml samples were collected prior to and 1, 5, 15, 30, 60, 120 and 180 minutes after the addition of either alanine stereoisomer. Samples were immediately filtered by vacuum filtration, washed in 0.9% NaCl, biomass scraped off the filter, added to a tube containing 5% TCA and samples prepared as described above. […] However, addition of 50 mM D-Ala triggered the production of small amounts of wt precursor (1%) within 1 minute. After 15 minutes, this amount had increased to 4%, which appeared to be close to the maximum, with levels of wt precursors never exceeding 5%.
For the precursor isolation and identification, a modification of the method described previously by Hong and colleagues (Hong et al., 2004) was used. 10 μg vancomycin was added to the strains at the moment of inoculation. The strains were grown in NMMP (1% (w/v) Mannitol, 50 mM MgCl2) until mid-log phase (OD-0.3-0.4) and mycelia were harvested by centrifugation at 4° C. and washed in 0.9% NaCl. The mycelium was extracted with 5% cold trichloric acid (TCA) for 30 minutes at 4° C. This was centrifuged and the supernatant desalted on a Sephadex G-25 column (Illustra NAP-10 Columns, GE Healthcare, Pittsburgh), and concentrated by rotary evaporation. The concentrated precursors were dissolved in HPLC-grade water and separated by LC-MS using a gradient of 0-20% acetonitrile in water with 0.1% TFA. The elution was monitored at 254 nm and monitored by the sizes eluted (1193.8-1195.3). […]

A further test has as its system S. coelicolor LAG2. Description: LC-MS analysis of peptidoglycan precursors, including time course after alanine addition. How it is done: In order to get more insights into the synthesis of vancomycin-sensitive (i.e., wild-type) or the alternate vancomycin-resistant peptidoglycan, the pool of peptidoglycan precursors was analyzed by Liquid Chromatography coupled to Mass Spectrometry (LC-MS). When cells produce wild-type PG, only the MurNac-pentapeptide with a D-Ala-D-Ala terminus are detected, while vancomycin-resistant PG precursors have a D-Ala-D-Lac terminus. To analyze the precursors produced in S. coelicolor M145 and its mutant derivatives LAG1 (Δddl) and LAG2 (Δddl vanS::IS466A) in the presence or absence of vancomycin, the strains were grown until exponential phase, after which the cultures were harvested, washed and the precursors extracted with 5% TCA. The supernatants were desalted, concentrated and analyzed by LC-MS (see Materials and Methods section).
as §2
For the precursor isolation and identification, a modification of the method described previously by Hong and colleagues (Hong et al., 2004) was used. 10 μg vancomycin was added to the strains at the moment of inoculation. The strains were grown in NMMP (1% (w/v) Mannitol, 50 mM MgCl2) until mid-log phase (OD-0.3-0.4) and mycelia were harvested by centrifugation at 4° C. and washed in 0.9% NaCl. The mycelium was extracted with 5% cold trichloric acid (TCA) for 30 minutes at 4° C. This was centrifuged and the supernatant desalted on a Sephadex G-25 column (Illustra NAP-10 Columns, GE Healthcare, Pittsburgh), and concentrated by rotary evaporation. The concentrated precursors were dissolved in HPLC-grade water and separated by LC-MS using a gradient of 0-20% acetonitrile in water with 0.1% TFA. The elution was monitored at 254 nm and monitored by the sizes eluted (1193.8-1195.3).
For the measurement over time, the protocol was adjusted in the following way: 300 ml NMMP cultures were grown until exponential phase, at which point a 10 ml sample was taken (sample t=0) and 50 mM of D-Ala or L-Ala was added, followed by further sampling after 1, 5, 15, 30, 60, 120 and 180 minutes. Samples were rapidly filtered with a vacuum pump and washed with 0.9% (w/v) NaCl, mycelia scraped off the filter and transferred to 5% TCA.

In test [3] the test system is S. coelicolor LAG2 (ddl suppressor mutant). Kind of test: MIC of vancomycin on MM agar plates with added D-Ala or L-Ala. The note with it: LAG2, L-Ala (control). How it is done:
VanS is the sensory kinase of a two-component system formed with VanR, and it has been shown previously that certain mutations in vanS will constitutively upregulate the vancomycin resistance cluster, explaining the viability of strain LAG2 in the absence of vancomycin.
as §1

A further test has as its system S. coelicolor M145. Described as above. Particulars: M145, up to 50 mg/ml L-Ala (control). On the procedure: The naturally vancomycin-resistant model organism S. coelicolor M145 was used as the initial test system. The strain was grown on solid minimal medium (MM) agar plates with increasing amounts of D-Ala and vancomycin. D-Ala was thereby added in concentrations of 5, 10 and 50 mM and the effect on the MIC of vancomycin assessed. As a first control, L-Ala was added and, as a second control, no amino acids were added. […] This was not altered when the culture media were supplemented with up to 50 mg/ml L-Ala (Table 1 and FIG. 6).
as §1

Where only a bound is given, the exact number is not on record here.

Take `C[C@@H](N)C(=O)O` [D-Ala, D-alanine]: in test [1], the “stronger reduction of the MIC of vancomycin as compared to M145” value is 4 fold. The wild-type precursor in test [2] (LAG4, 3 hours after addition of D-Ala) was determined as 80%; in test [2] (LAG4, after addition of D-Ala, 1 and 5 minutes), 25%; in test [2] (LAG4, after addition of D-Ala, 15-30 minutes), 40%. For the same compound, the wt precursor in the test on S. coelicolor LAG2 (LAG2, 50 mM D-Ala, after 15 minutes) worked out at 4%; in the test with S. coelicolor LAG2 (LAG2, 50 mM D-Ala, within 1 minute) it was 1%. In the test with S. coelicolor LAG2 (LAG2, 50 mM D-Ala, up to 180 minutes), the “wt precursor, maximum level” value was not above 5%.
On to `C[C@H](N)C(=O)O` [L-Ala], for which the “production of wt precursors” value in the test with S. coelicolor LAG2 (LAG2, 50 mM L-Ala (control)) is reported as “did not activate the production of detectable levels”. Also, in test [3], the “effect of L-Ala on the MIC for vancomycin” value was “did not affect the MIC”. Also, in the test on S. coelicolor M145, the “effect of L-Ala on the MIC of vancomycin” value was “not altered”.
